HELM strings list units from the 5' end as sugar, base in round brackets, then linkage (d deoxyribose, r ribose, m 2'-O-methyl, p phosphodiester). Strings are as the collection lists them; they lack the last nucleoside at the 3' end of the tested compound. [moe] = 2'-O-(2-methoxyethyl) (MOE); [sp] = phosphorothioate linkage; [m5C] = 5-methylcytosine
What follows are substances tested against PRNP (assay: mouse, dose not given). Conditions: ASO.
“RNA1{[moe](T)[sp].[moe](A)p.[moe]([m5C])p.[moe](T)p.[moe]([m5C])[sp].d(T)[sp].d(A)[sp].d(T)[sp].d(G)[sp].d(T)[sp].d(T)[sp].d(T)[sp].d(T)[sp].d([m5C])[sp].d([m5C])[sp].[moe](A)p.[moe](G)p.[moe](T)[sp].[moe](G)}$$$$ (last 3' nucleoside missing)” gave a 3 h FOB score of 1.75 score 0-7.
Substance “RNA1{[moe](G)[sp].[moe](T)p.[moe]([m5C])p.[moe](A)p.[moe](G)p.d(T)[sp].d(T)[sp].d(T)[sp].d(T)[sp].d(T)[sp].d([m5C])[sp].d([m5C])[sp].d([m5C])[sp].d([m5C])[sp].[moe](A)p.[moe]([m5C])p.[moe](A)[sp].[moe](T)}$$$$ (last 3' nucleoside missing)” has a 3 h FOB score of 0 score 0-7.
Work on “RNA1{[moe](T)[sp].[moe](T)p.[moe](T)p.[moe](G)p.[moe](A)[sp].d(T)[sp].d(T)[sp].d(T)[sp].d([m5C])[sp].d(A)[sp].d(A)[sp].d(G)[sp].d(T)[sp].d([m5C])[sp].d([m5C])[sp].[moe]([m5C])p.[moe](A)p.[moe](G)[sp].[moe](A)}$$$$ (last 3' nucleoside missing)” yielded a 3 h FOB score of 2.25 score 0-7.
In the case of “RNA1{[moe](G)[sp].[moe]([m5C])p.[moe]([m5C])p.[moe](T)p.[moe](T)[sp].d(A)[sp].d(A)[sp].d(T)[sp].d(T)[sp].d(A)[sp].d([m5C])[sp].d([m5C])[sp].d(T)[sp].d(A)[sp].d(T)[sp].[moe](A)p.[moe](G)p.[moe](T)[sp].[moe](T)}$$$$ (last 3' nucleoside missing)”, the 3 h FOB score is reported as 1 score 0-7.
“RNA1{[moe](G)[sp].[moe](T)p.[moe](G)p.[moe](T)p.[moe](T)[sp].d([m5C])[sp].d([m5C])[sp].d(A)[sp].d(T)[sp].d([m5C])[sp].d([m5C])[sp].d(T)[sp].d([m5C])[sp].d([m5C])[sp].d(A)[sp].[moe](G)p.[moe](G)p.[moe]([m5C])[sp].[moe](T)}$$$$ (last 3' nucleoside missing)” was tested, and the 3 h FOB score was 1 score 0-7.
Substance “RNA1{[moe](A)[sp].[moe]([m5C])p.[moe](T)p.[moe](G)p.[moe](A)[sp].d(A)[sp].d(T)[sp].d(T)[sp].d(T)[sp].d(T)[sp].d([m5C])[sp].d(T)[sp].d([m5C])[sp].d(T)[sp].d([m5C])[sp].[moe]([m5C])p.[moe]([m5C])p.[moe](A)[sp].[moe](G)}$$$$ (last 3' nucleoside missing)” has a 3 h FOB score of 0 score 0-7.
“RNA1{[moe](G)[sp].[moe](T)p.[moe](G)p.[moe](T)p.[moe]([m5C])p.[moe](A)p.d(T)[sp].d(A)[sp].d(A)[sp].d(T)[sp].d(T)[sp].d(T)[sp].d(T)[sp].d([m5C])[sp].d(T)[sp].d(T)[sp].[moe](A)p.[moe](G)[sp].[moe]([m5C])}$$$$ (last 3' nucleoside missing)” was tested, and the 3 h FOB score was 0 score 0-7.
“RNA1{[moe]([m5C])[sp].[moe]([m5C])p.[moe](A)p.[moe](G)p.[moe](A)[sp].d(A)[sp].d(G)[sp].d(T)[sp].d(T)[sp].d(T)[sp].d(A)[sp].d(A)[sp].d([m5C])[sp].d(A)[sp].d(T)[sp].[moe](A)p.[moe](T)p.[moe](T)[sp].[moe](T)}$$$$ (last 3' nucleoside missing)” was tested, and the 3 h FOB score was 0 score 0-7.
In the case of “RNA1{[moe](T)[sp].[moe]([m5C])p.[moe](T)p.[moe](T)p.[moe](T)[sp].d(T)[sp].d([m5C])[sp].d(T)[sp].d(T)[sp].d(T)[sp].d(G)[sp].d([m5C])[sp].d(A)[sp].d([m5C])[sp].d(A)[sp].[moe]([m5C])p.[moe](T)p.[moe](G)[sp].[moe](A)}$$$$ (last 3' nucleoside missing)”, the 3 h FOB score is reported as 3 score 0-7.
Substance “RNA1{[moe]([m5C])[sp].[moe](T)p.[moe](A)p.[moe](T)p.[moe](G)[sp].d(T)[sp].d(T)[sp].d(T)[sp].d(T)[sp].d([m5C])[sp].d([m5C])[sp].d(A)[sp].d(G)[sp].d(T)[sp].d(G)[sp].[moe]([m5C])p.[moe]([m5C])p.[moe]([m5C])[sp].[moe](A)}$$$$ (last 3' nucleoside missing)” has a 3 h FOB score of 3 score 0-7.
“RNA1{[moe]([m5C])[sp].[moe](T)p.[moe](A)p.[moe](T)p.[moe](G)p.d(T)[sp].d(T)[sp].d(T)[sp].d(T)[sp].d([m5C])[sp].d([m5C])[sp].d(A)[sp].d(G)[sp].d(T)[sp].[moe](G)p.[moe]([m5C])p.[moe]([m5C])[sp].[moe]([m5C])}$$$$ (last 3' nucleoside missing)” showed a 3 h FOB score of 1 score 0-7.
For “RNA1{[moe]([m5C])[sp].[moe](G)[sp].[moe](T)p.[moe]([m5C])p.[moe]([m5C])p.[moe](A)p.[moe](T)p.d(T)[sp].d(T)[sp].d(T)[sp].d([m5C])[sp].d(T)[sp].d(G)[sp].d(T)[sp].d(G)[sp].d([m5C])[sp].d(T)[sp].[moe](T)p.[moe](T)}$$$$ (last 3' nucleoside missing)”, the 3 h FOB score was 5.5 score 0-7.
“RNA1{[moe](A)[sp].[moe](T)p.[moe](G)p.[moe]([m5C])p.[moe]([m5C])[sp].d(A)[sp].d([m5C])[sp].d(A)[sp].d(T)[sp].d(A)[sp].d(T)[sp].d(A)[sp].d(G)[sp].d(G)[sp].d(G)[sp].[moe](T)p.[moe]([m5C])p.[moe]([m5C])[sp].[moe](T)}$$$$ (last 3' nucleoside missing)” was tested, and the 3 h FOB score was 3 score 0-7.
“RNA1{[moe](G)[sp].[moe](T)p.[moe]([m5C])p.[moe](A)p.d(G)[sp].d(T)[sp].d(T)[sp].d(T)[sp].d(T)[sp].d(T)[sp].d([m5C])[sp].d([m5C])[sp].d([m5C])[sp].d([m5C])[sp].[moe](A)p.[moe]([m5C])p.[moe](A)p.[moe](T)[sp].[moe](A)}$$$$ (last 3' nucleoside missing)” showed a 3 h FOB score of 0 score 0-7.
For “RNA1{[moe](G)[sp].[moe]([m5C])p.[moe](T)p.[moe](T)p.d(A)[sp].d([m5C])[sp].d(T)[sp].d([m5C])[sp].d(G)[sp].d(G)[sp].d([m5C])[sp].d(T)[sp].d(T)[sp].d(G)[sp].[moe](T)p.[moe](T)p.[moe]([m5C])p.[moe]([m5C])[sp].[moe](A)}$$$$ (last 3' nucleoside missing)”, the 3 h FOB score was 3.25 score 0-7.
“RNA1{[moe](G)[sp].[moe](T)p.[moe](T)p.[moe](T)p.[moe]([m5C])[sp].d([m5C])[sp].d([m5C])[sp].d(A)[sp].d([m5C])[sp].d(A)[sp].d(T)[sp].d(A)[sp].d(T)[sp].d(T)[sp].d(A)[sp].[moe](A)p.[moe](G)p.[moe](T)[sp].[moe](A)}$$$$ (last 3' nucleoside missing)” showed a 3 h FOB score of 1 score 0-7.
“RNA1{[moe](T)[sp].[moe]([m5C])p.[moe](A)p.[moe](G)p.[moe](T)[sp].d(T)[sp].d(T)[sp].d(T)[sp].d(T)[sp].d([m5C])[sp].d([m5C])[sp].d([m5C])[sp].d([m5C])[sp].[moe](A)p.[moe]([m5C])p.[moe](A)[sp].[moe](T)}$$$$ (last 3' nucleoside missing)” was tested, and the 3 h FOB score was 0 score 0-7.
Substance “RNA1{[moe](G)[sp].[moe](G)p.[moe](T)p.[moe](G)p.[moe](A)[sp].d(T)[sp].d(T)[sp].d(T)[sp].d(T)[sp].d(T)[sp].d(T)[sp].d([m5C])[sp].d([m5C])[sp].d(T)[sp].d(T)[sp].[moe](T)p.[moe]([m5C])p.[moe](T)[sp].[moe](T)}$$$$ (last 3' nucleoside missing)” has a 3 h FOB score of 1 score 0-7.
With “RNA1{[moe](G)[sp].[moe](G)p.[moe](G)p.[moe](A)p.[moe](T)[sp].d(G)[sp].d(A)[sp].d(T)[sp].d([m5C])[sp].d(T)[sp].d(G)[sp].d([m5C])[sp].d(A)[sp].d(A)[sp].d(T)[sp].[moe](T)p.[moe](G)p.[moe](T)[sp].[moe](T)}$$$$ (last 3' nucleoside missing)” the 3 h FOB score was 4 score 0-7.
“RNA1{[moe](T)[sp].[moe](G)p.[moe](G)p.[moe]([m5C])p.[moe](A)p.[moe]([m5C])p.d(T)[sp].d(T)[sp].d(T)[sp].d([m5C])[sp].d(T)[sp].d(T)[sp].d(T)[sp].d(T)[sp].d(T)[sp].d(A)[sp].[moe](T)p.[moe](T)[sp].[moe](T)}$$$$ (last 3' nucleoside missing)” showed a 3 h FOB score of 0.25 score 0-7.
Substance “RNA1{[moe](G)[sp].[moe]([m5C])p.[moe]([m5C])p.[moe](A)p.[moe]([m5C])p.[moe](A)p.d(T)[sp].d(A)[sp].d(T)[sp].d(A)[sp].d(G)[sp].d(G)[sp].d(G)[sp].d(T)[sp].d([m5C])[sp].d([m5C])[sp].[moe](T)p.[moe](T)[sp].[moe](T)}$$$$ (last 3' nucleoside missing)” has a 3 h FOB score of 4 score 0-7.
Work on “RNA1{[moe]([m5C])[sp].[moe](T)p.[moe](G)p.[moe](T)p.[moe](T)[sp].d(A)[sp].d(T)[sp].d(G)[sp].d(T)[sp].d(T)[sp].d(A)[sp].d(T)[sp].d(T)[sp].d(A)[sp].d(T)[sp].[moe](T)p.[moe](G)p.[moe](T)[sp].[moe](T)}$$$$ (last 3' nucleoside missing)” yielded a 3 h FOB score of 3.75 score 0-7.
In the case of “RNA1{[moe](T)[sp].[moe](G)p.[moe](G)p.[moe](T)p.[moe](T)[sp].d(A)[sp].d([m5C])[sp].d(A)[sp].d(T)[sp].d(A)[sp].d(A)[sp].d(T)[sp].d(G)[sp].d(T)[sp].d(T)[sp].[moe]([m5C])p.[moe](A)p.[moe](T)[sp].[moe](T)}$$$$ (last 3' nucleoside missing)”, the 3 h FOB score is reported as 4 score 0-7.

Reference: the OligoGym collection
